From patent publication US20050256184A1, “1,2,4-Trioxanes and 1,2,4-trioxepanes” (priority 2004, published 2005)

tested on: K1 Plasmodium falciparum; assay: In vitro antimalarial activity, 48-h [3H]-hypoxanthine incorporation sensitivity assay; assay type: cell-based; details: Erythrocyte, K1 strain (chloroquine resistant) of Plasmodium falciparum in human erythrocytes, triplicate, read-out: IC50
Procedure: Antimalarial activity. The K1 strain of Plasmodium falciparum was used in this study. This strain is known to be CQ resistant Parasites were maintained in continuous culture using the method of Jensen and Trager (Trager, W; Jenson, J. B. Human Malaria Parasites in Continuous Culture. Science, 1976, 193, 673-675). Cultures were grown in flasks containing human erythrocytes (2-5%) with parasitemia in the range of 1% to 10% suspended in RPMI 1640 medium supplemented with 25 mM HEPES and 32 mM NaHCO3, and 10% human serum (complete medium). Cultures were gassed with a mixture of 3% O2, 4% CO2 and 93% N2. Antimalarial activity was assessed with an adaption of the 48-h sensitivity assay of Desjardins et al. using [^3H]-hypoxanthine incorporation as an assessment of parasite growth (Desjardins, R. E.; Canfield, C. J.; Haynes, J. D.; Chulay, J. D. Quantitative Assessment of Antimalarial activity in vitro by Semi-automated Microdilution Technique. Antimicrob. Agents Chemother., 1979, 16, 710-718). Stock drug solutions were prepared in 100% dimethylsulphoxide (DMSO) and diluted to the appropriate concentration using complete medium. Assays were performed in sterile 96-well microtitre plates, each plate contained 200 μl of parasite culture (2% parasitemia, 0.5% haematocrit) with or without 10 μl drug dilutions. Each drug was tested in triplicate and parasite growth compared to control wells (which consituted 100% parasite growth). After 24-h incubation at 37° C., 0.5 μCi hypoxanthine was added to each well. Cultures were incubated for a further 24 h before they were harvested onto filter-mats, dried for 1 h at 55° C. and counted using a Wallac 1450 Microbeta Trilux Liquid scintillation and luminescence counter. IC50 values were calculated by interpolation of the probit transformation of the log dose-response curve.

Structure (SMILES) | IC50 [µM]
C[C@@H]1CC[C@H]2[C@@H](C)C(=O)O[C@@H]3O[C@@]4(C)CC[C@@H]1[C@]32OO4 [Artemisinin, reference compound] | 0.012
CC1(CSc2ccccc2)COC2(CCCCCCCCCCC2)OO1 (stereo not drawn) [4j, 3-Methyl-3-phenylsulfanylmethyl-1,2,5-trioxa-spiro[5.11]heptadecane] | 0.135
CC1(CSc2ccccc2)COC2(OO1)C1CC3CC(C1)CC2C3 (stereo not drawn) [4f, Adamantyl Trioxane] | 0.285

Continued, values first:

IC50 [µM] | Structure (SMILES)
0.314 | CC1(CSc2ccccc2)COC2(CCC2)OO1 (stereo not drawn) [4e, 7-Methyl-7-phenylsulfanylmethyl-5,6,9-trioxa-spiro[3.5]nonane]
0.329 | CC1(CS(=O)(=O)c2ccccc2)COC2(OO1)C1CC3CC(C1)CC2C3 (stereo not drawn) [8f, Adamantyl sulfone trioxane]
0.035 | CC1(CS(=O)(=O)c2ccc(Cl)cc2)COC2(CCCCC2)OO1 (stereo not drawn) [8i, 3-(4-Chloro-benzenesulfonylmethyl)-3-methyl-1,2,5-trioxa-spiro[5.5]undecane]

same assay, conditions: Plasmodium falciparum, K1, Erythrocyte

Structure (SMILES) | IC50 [µM]
CCN(CC)CCCC(C)Nc1ccnc2cc(Cl)ccc12 (stereo not drawn) [Chloroquine, reference compound] | 0.21

tested on: not given; assay: not given; details: not given

Structure (SMILES) | melting point [°C]
CC1(CSc2ccc(Cl)cc2)COC2(CCCCCCCCCCC2)OO1 (stereo not drawn) [4k, 3-(4-Chloro-phenylsulfanylmethyl)-3-methyl-1,2,5-trioxa-spiro[5.11]heptadecane] | 93 to 94
CC1(CSc2ccccc2)COC2(CCCCC2)OO1 (stereo not drawn) [4c, 3-Methyl-3-phenylsulfanylmethyl-1,2,5-trioxa-spiro[5.5]undecane] | 45 to 46
CC1(CSc2ccccc2)COC2(CCCCCCCCCCC2)OO1 (stereo not drawn) [4j, 3-Methyl-3-phenylsulfanylmethyl-1,2,5-trioxa-spiro[5.11]heptadecane] | 89
CC1(CSc2ccc(Cl)cc2)COC2(CCCC2)OO1 (stereo not drawn) [4d, 8-(4-Chloro-phenylsulfanylmethyl)-8-methyl-6,7,10 trioxa-spiro[4.5]decane] | 69.8 to 70

Second part, the compound after the results:

melting point [°C] | Structure (SMILES)
154 | CC1(CS(=O)(=O)c2ccccc2)COC2(CCC(C(C)(C)C)CC2)OO1 (stereo not drawn) [8g, 3-Benzenesulfonylmethyl-9-tert-butyl-3-methyl-1,2,5-trioxa-spiro[5.5]undecane]
88 to 89 | CC1(CS(=O)(=O)c2ccccc2)COC2(CCCCC2)OO1 (stereo not drawn) [8c, 3-Benzenesulfonylmethyl-3-methyl-1,2,5-trioxa-spiro[5.5]undecane]
96 | CC1(CS(=O)(=O)c2ccccc2)COC2(CCC(=O)CC2)OO1 (stereo not drawn) [8h, 3-Benzenesulfonylmethyl-3-methyl-1,2,5-trioxa-spiro[5.5]undecan-9-one]
126 to 127 | CC1(CS(=O)(=O)c2ccccc2)COC2(OO1)C1CC3CC(C1)CC2C3 (stereo not drawn) [8f, Adamantyl sulfone trioxane]
96 to 97 | CC1(CS(=O)(=O)c2ccccc2)COC2(CCC2)OO1 (stereo not drawn) [8e, 7-Benzenesulfonylmethyl-7-methyl-5,6,9-trioxa-spiro[3.5]nonane]
86 to 87 | CC1(CS(=O)(=O)c2ccc(Cl)cc2)COC2(CCCCC2)OO1 (stereo not drawn) [8i, 3-(4-Chloro-benzenesulfonylmethyl)-3-methyl-1,2,5-trioxa-spiro[5.5]undecane]
123 to 124 | CC1(CS(=O)(=O)c2ccccc2)COC2(CCCCCCCCCCC2)OO1 (stereo not drawn) [8k, 3-Benzenesulfonylmethyl-3-methyl-1,2,5-trioxa-spiro[5.11]heptadecane]
